Source: the NIST ThermoML archive (doi:10.1021/je100765j)

Assay: xn = mol fraction of the nth substance listed
Settings: 101 kPa, Liquid; for speed of sound: Sing-around technique in a fixed-path interferometer

CCC(C)Cl (configuration not stated) [2-chlorobutane] + CC(C)OC(C)C
Settings	mass density, 283.15 K [kg/m3]	mass density, 288.15 K [kg/m3]	mass density, 293.15 K [kg/m3]	speed of sound, 283.15 K [m/s]	speed of sound, 288.15 K [m/s]	speed of sound, 293.15 K [m/s]	speed of sound, 298.15 K [m/s]
x1 = 0.0519	740.159	734.981	729.792	1068.8	1046.5	1024	1001.8
x1 = 0.0988	745.897	740.712	735.485	1071.7	1049.4	1027.1	1004.9
x1 = 0.2006	758.792	753.569	748.303	1078	1055.8	1033.7	1011.5
x1 = 0.3211	774.756	769.483	764.161	1085.4	1063.4	1041.4	1019.4
x1 = 0.4201	788.575	783.251	777.889	1091.5	1069.7	1047.9	1026.1
x1 = 0.532	804.971	799.602	794.197	1098.5	1076.9	1055.3	1033.8
x1 = 0.6244	819.223	813.814	808.369	1104.3	1082.9	1061.5	1040.2
x1 = 0.726	835.602	830.144	824.657	1110.7	1089.5	1068.3	1047.2
x1 = 0.8163	850.907	845.414	839.877	1116.3	1095.4	1074.4	1053.5
x1 = 0.8817	862.411	856.901	851.332	1120.4	1099.6	1078.7	1057.9
x1 = 0.9634	877.39	871.819	866.214	1125.5	1104.9	1084.3	1063.7
